Patent publication EP1013767A1, “Method of screening for agrochemicals” (AMERICAN CYANAMID COMPANY, priority 1998, dated 2000)
Entries after “also recorded” stand apart in the source; their conditions may differ.

Experiments:
LOX2:Hv:1 = assay: Northern blot analysis of LOX2:Hv:1 mRNA accumulation in primary leaves of barley; format: in vivo, Barley (Hordeum vulgare L.); details: for kinetics of LOX2:Hv:1 transcript accumulation: 45 µM JM compared with 45 µM SA; for accumulation of LOX transcript: barley seedlings, powdery mildew susceptible and mlo-resistant cultivar, DCINA soil drench 10 mg active ingredient/L soil volume, BTH 1 mM spray
Experimental: (§1) Barley (Hordeum vulgare L.) mlo-resistant cultivar Salome as well as the susceptible cultivars Pallas and Manchuria were grown as described for example by Hause et al., J. Plant Physiol. 150, 127-132 (1997). Inoculation with conidia of Blumeria graminis f. sp. hordei race A6 (Wiberg, Hereditas 77, 89-148 (1974)) were performed at a density of 10 conidia per mm^2 with the primary leaf of seven-days-old seedlings at the onset of the light period.
(§2) Segments of seven-days-old primary leaves were freshly harvested and either floated on water, freshly prepared (±) JM, or Na-salicylate.
(§3) DCINA (2,6-dichloroisonicotinic acid), formulated as 25 % active ingredient with a wettable powder (WP) carrier (Métraux et al., Advances in molecular genetics of plant microbe interactions. Vol. 1, Kluwer Academic Publishers, Dordrecht, The Netherlands, pp. 432-439 (1991)), was applied to 7-days-old barley seedlings as a soil drench at a final concentration of 10 mg active ingredient/L soil volume. BTH (benzo[1,2,3]-thiadiazole-7-carbothioic acid S-methyl ester) was applied at a concentration of 1 mM by spraying a formulation with WP in distilled water. Controls were treated with WP.
Total RNA was extracted as described for example by Hause et al., Plant Cell Physiol. 37, 641-649 (1996). Northern blot analysis was performed with digoxigenin-Iabelled cDNAs (DIG-High Prime labelling Kit, Boehringer Mannheim) of barley LOX2:Hv:1 (Vörös et al., loc. cit) and barley PR1b (Bryngelsson et al., Mol. Plant-Microbe Int. 7, 267-275 (1994)).

PR1b = assay: Northern blot analysis of PR1b mRNA accumulation in barley; format: in vivo, Barley (Hordeum vulgare L.); details: in response to treatment
Experimental: as §1, §2, §3
Total RNA was extracted as described for example by Hause et al., Plant Cell Physiol. 37, 641-649 (1996). […]

PR genes = details: wheat; cited from earlier work
powdery mildew fungus = details: barley, against the powdery mildew fungus; cited from earlier work

Structure (SMILES)	kinetics of LOX2:Hv:1 transcript accumulation (LOX2:Hv:1)	sensitivity of LOX2:Hv:1 (dose-response curves) (LOX2:Hv:1; JM compared with SA treatment, Fig. 1)	PR1b mRNA accumulation (PR1b)	accumulation of LOX transcript (LOX2:Hv:1)	LOX2:Hv:1 induction, BTH compared with DCINA (LOX2:Hv:1; in all experiments)	activation of PR genes (PR genes)	LOX2:Hv:1 expression (LOX2:Hv:1; treatment with SA, cultivar Salome, leaf segments, 24 hours (Fig. 1))	activation of SAR (powdery mildew fungus)
CCC=CCC1C(=O)CCC1CC(=O)OC (racemic) [JM, jasmonic acid methyl ester]	No differences	slightly higher sensitivity	not found					
CSC(=O)c1cccc2nnsc12 [BTH, benzo[1,2,3]-thiadiazole-7-carbothioic acid S-methyl ester]			not pathogen related genes like PR1b	accumulation of LOX transcript; also recorded: activate LOX	stronger induced	strongly activate		
O=C(O)c1cc(Cl)nc(Cl)c1 [DCINA, 2,6-dichloroisonicotinic acid]				accumulation of LOX transcript		strongly activate		
O=C(O)c1ccccc1O [SA, salicylic acid]	No differences					strongly activate	induced	activated SAR
